# Literature values as cited in PubChem BioAssay AID1259409 (Chemical Carcinogenesis Research Information System (CCRIS), 2018).
# System: rodent chemically induced tumor inhibition, incidence and multiplicity
# Test: CCRIS tumor inhibitor studies
# Details: Dose [Inhibitor]: 0, Route [Inhibitor]: ORAL, Promoter: NONE USED
compound,measurement,setting,value
ClC1C(Cl)C(Cl)C(Cl)C(Cl)C1Cl (stereo unspecified),"tumour outcome (control, treated, inhibition, significance)","Carcinogen: DIETHYLNITROSAMINE, 55-18-5, 250 PPM IN DIET FOR 24 WK BEGINNING AT 28 D OF AGE (STUDY DURATION: 26 WK), Species: MOUSE, Strain/Sex: B6C3F1/MALE, Target Tissue: Type of Lesion: LIVER: ADENOMA, Dose [Carcinogen]: 5 UG/G BW IN 0.1 ML SALINE ONCE AT 15 D OF AGE","15/15 (100%), 15/15 (100%), 0%, not significant"
same,"tumour outcome (control, treated, inhibition, significance)","100 PPM IN DIET ADMINISTERED CONCURRENTLY WITH CARCINOGEN FOR 1 WK (STUDY DURATION: 82 WK), Species: RAT, Strain/Sex: BUFFALO/FEMALE, Target Tissue: Type of Lesion: LIVER: TUMOR, Dose [Carcinogen]: 1 PPM IN DIET FOR 1 WK","6/19 (32%), 1/20 (5%), 84%, not calculated"
same,"tumour outcome (control, treated, inhibition, significance)","100 PPM IN DIET ADMINISTERED CONCURRENTLY WITH CARCINOGEN FOR 3 WK (STUDY DURATION: 82 WK), Species: RAT, Strain/Sex: BUFFALO/FEMALE, Target Tissue: Type of Lesion: LIVER: TUMOR, Dose [Carcinogen]: 1 PPM IN DIET FOR 3 WK","6/19 (32%), 0/23 (0%), 100%, not calculated"
same,"tumour outcome (control, treated, inhibition, significance)","100 PPM IN DIET ADMINISTERED CONCURRENTLY WITH CARCINOGEN FOR 5 WK (STUDY DURATION: 82 WK), Species: RAT, Strain/Sex: BUFFALO/FEMALE, Target Tissue: Type of Lesion: LIVER: TUMOR, Dose [Carcinogen]: 1 PPM IN DIET FOR 5 WK","6/19 (32%), 0/17 (0%), 100%, not calculated"
same,"tumour outcome (control, treated, inhibition, significance)","100 PPM IN DIET ADMINISTERED CONCURRENTLY WITH CARCINOGEN FOR 10 WK (STUDY DURATION: 82 WK), Species: RAT, Strain/Sex: BUFFALO/FEMALE, Target Tissue: Type of Lesion: LIVER: TUMOR, Dose [Carcinogen]: 1 PPM IN DIET FOR 10 WK","6/19 (32%), 0/22 (0%), 100%, not calculated"
same,"tumour outcome (control, treated, inhibition, significance)","100 PPM IN DIET ADMINISTERED CONCURRENTLY WITH CARCINOGEN FOR 15 WK (STUDY DURATION: 82 WK), Species: RAT, Strain/Sex: BUFFALO/FEMALE, Target Tissue: Type of Lesion: LIVER: TUMOR, Dose [Carcinogen]: 1 PPM IN DIET FOR 15 WK","6/19 (32%), 0/13 (0%), 100%, not calculated"
